Like-named read-outs stand apart in the source and are kept apart here.

Consider eight compounds from patent US12098154B2, “Inhibitors of cyclin-dependent kinases” (Dana-Farber Cancer Institute, Inc., priority 2015, dated 2024).

In one test the target is CDK7/CycH (Homo sapiens, UniProt P50613). As to the kind of experiment: CDK7/CycH inhibition (Tables A1, A2). The class given is biochemical.
For a further test, the target named is CDK9/CycT (Homo sapiens, UniProt P50750). As to the kind of experiment: CDK9/CycT inhibition (Tables A1, A2). The class given is biochemical.
Chain of CDK9/CycT (P50750 whole entry): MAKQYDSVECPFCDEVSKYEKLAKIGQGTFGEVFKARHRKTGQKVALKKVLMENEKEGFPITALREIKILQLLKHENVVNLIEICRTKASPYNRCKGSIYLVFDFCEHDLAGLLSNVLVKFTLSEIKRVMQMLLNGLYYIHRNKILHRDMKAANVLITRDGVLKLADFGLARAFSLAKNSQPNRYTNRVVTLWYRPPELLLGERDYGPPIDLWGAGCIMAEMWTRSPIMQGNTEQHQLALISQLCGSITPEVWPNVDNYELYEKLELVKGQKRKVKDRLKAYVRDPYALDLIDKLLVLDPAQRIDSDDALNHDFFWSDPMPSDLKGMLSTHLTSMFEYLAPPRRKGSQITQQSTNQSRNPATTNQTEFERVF
Chain of CDK9/CycT (O60563 whole entry partner): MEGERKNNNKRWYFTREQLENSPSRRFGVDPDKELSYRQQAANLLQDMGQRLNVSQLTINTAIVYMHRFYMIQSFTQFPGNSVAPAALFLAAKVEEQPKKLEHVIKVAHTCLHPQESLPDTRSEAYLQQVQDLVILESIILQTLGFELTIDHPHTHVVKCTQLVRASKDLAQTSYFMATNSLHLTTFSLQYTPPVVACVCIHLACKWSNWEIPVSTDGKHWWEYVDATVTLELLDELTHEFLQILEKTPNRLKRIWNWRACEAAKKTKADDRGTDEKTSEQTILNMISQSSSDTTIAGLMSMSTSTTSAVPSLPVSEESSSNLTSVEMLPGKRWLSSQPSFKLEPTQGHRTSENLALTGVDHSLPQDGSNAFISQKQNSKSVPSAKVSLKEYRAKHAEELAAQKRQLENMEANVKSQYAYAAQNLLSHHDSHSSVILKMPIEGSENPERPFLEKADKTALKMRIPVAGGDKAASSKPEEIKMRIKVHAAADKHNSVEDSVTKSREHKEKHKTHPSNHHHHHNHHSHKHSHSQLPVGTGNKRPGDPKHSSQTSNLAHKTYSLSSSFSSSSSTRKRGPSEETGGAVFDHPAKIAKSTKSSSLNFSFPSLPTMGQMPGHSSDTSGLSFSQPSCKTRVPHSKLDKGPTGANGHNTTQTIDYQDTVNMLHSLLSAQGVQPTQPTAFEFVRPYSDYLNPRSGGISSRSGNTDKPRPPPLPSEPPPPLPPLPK
In test [1] the test system is Jurkat cells. Briefly: Jurkat proliferation assay (CellTiter-Glo). The class given is cell-based. The conditions noted are these: for IC50: Homo sapiens, Jurkat. The procedure: Jurkat cells were seeded at a density of 25,000 cells/well in 96-well plates. Cells were then treated with the indicated compounds in a 10-pt dose escalation format from 1 nM to 10 μM or DMSO control for 72 hours. After 72 hours, the cells were assayed using CellTiter-Glo Luminescent Cell Viability Assay (Promega) to determine cell viability by measuring the amount of ATP present in each sample cell population, which is an indicator of cell metabolic activity. […] All data points were performed in biological triplicate. Error bars are +/−SD.
Jurkat cells were seeded at a density of 25,000 cells/well in 96-well plates. Cells were then treated with the indicated compounds in a 10-pt dose escalation format from 1 nM to 10 μM or DMSO control for 72 hrs. After 72 hrs, cells were assayed using CellTiter-Glo Luminescent Cell Viability Assay (Promega) to determine cell viability by measuring the amount of ATP present in each sample cell population, which is an indicator of cell metabolic activity. […] All data points were performed in biological triplicate. Error bars are +/−SD.
Background: ATP-based viability assays read luminescence as a measure of living cells.

Another test has as its target CDK2/CycA (Homo sapiens, UniProt P24941). Briefly: CDK2/CycA inhibition (Tables A1, A2). The class given is biochemical.
The next test concerns the target T1, CDK12 (Homo sapiens, UniProt Q9NYV4).
T1 construct: endogenous in cells; host or cells: Jurkat
As to the kind of experiment: Pulldown assay with biotin-THZ1, blot for Cyclin K. The conditions noted are these: Jurkat cells treated with 1 uM or 200 nM. The class given is cell-based. The procedure: Specifically. […] Decreased pulldown of cyclin K with biotin-THZ1 indicated a loss of CDK12 binding.
(§1) 6 hours after treatment, cells were washed and harvested by resuspending in lysis buffer (50 mM Hepes pH 7.4, 150 mM NaCl, 1% NP-40, 5 mM EDTA, protease and phosphatase inhibitors) and lysing on ice 30 minutes. Lysates were cleared by centrifugation at 15,000 rpm 30 minutes. Biotin-labeled THZ1 was added to 1 uM to lysates and rotated at 4° C. overnight. Streptavidin-agarose beads were washed and 30 uL slurry was added to each lysate and rotated for 1 hour at 4° C. Beads were washed 5 times with lysis buffer and 50 uL 2×LDS buffer was added to each sample. Samples were boiled and equal volume of protein was loaded onto gel. Gel was transferred to nitrocellulose and blotted for Cyclin K and Cyclin H.

The target of a further test is T2, CDK7 (Homo sapiens, UniProt P50613).
T2 construct: endogenous in cells; host or cells: Jurkat
T2 sequence (P50613 2-346 limits assumed): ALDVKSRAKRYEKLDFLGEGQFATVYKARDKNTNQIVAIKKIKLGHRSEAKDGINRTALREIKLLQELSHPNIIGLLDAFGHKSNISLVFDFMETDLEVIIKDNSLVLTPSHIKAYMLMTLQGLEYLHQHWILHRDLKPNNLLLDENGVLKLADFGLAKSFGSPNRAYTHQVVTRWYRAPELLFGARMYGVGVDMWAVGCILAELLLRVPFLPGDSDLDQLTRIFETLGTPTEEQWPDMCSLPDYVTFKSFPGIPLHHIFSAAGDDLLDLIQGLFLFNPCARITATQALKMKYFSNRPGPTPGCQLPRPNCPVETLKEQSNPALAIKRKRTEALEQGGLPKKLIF
T2 sequence (P51946 whole entry partner): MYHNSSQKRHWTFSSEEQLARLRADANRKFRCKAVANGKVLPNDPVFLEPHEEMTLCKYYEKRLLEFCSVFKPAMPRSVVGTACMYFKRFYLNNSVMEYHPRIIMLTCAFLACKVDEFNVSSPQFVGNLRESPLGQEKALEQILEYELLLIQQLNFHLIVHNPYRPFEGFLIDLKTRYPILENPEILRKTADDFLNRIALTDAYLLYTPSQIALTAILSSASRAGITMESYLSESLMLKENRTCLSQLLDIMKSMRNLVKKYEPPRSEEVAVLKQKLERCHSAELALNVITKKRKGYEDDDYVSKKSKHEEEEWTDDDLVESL
T2 sequence (P51948 whole entry partner): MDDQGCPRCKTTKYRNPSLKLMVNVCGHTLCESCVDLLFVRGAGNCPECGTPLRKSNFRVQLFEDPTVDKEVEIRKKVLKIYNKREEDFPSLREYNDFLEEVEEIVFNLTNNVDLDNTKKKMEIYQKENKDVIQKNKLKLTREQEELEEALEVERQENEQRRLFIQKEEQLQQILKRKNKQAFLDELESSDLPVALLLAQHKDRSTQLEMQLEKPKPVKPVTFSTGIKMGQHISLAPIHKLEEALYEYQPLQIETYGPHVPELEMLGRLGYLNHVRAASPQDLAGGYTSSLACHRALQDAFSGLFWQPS
As to the kind of experiment: Pulldown assay with biotin-THZ1, blot for Cyclin H. The class given is cell-based. Conditions: Jurkat cells treated with 1 uM or 200 nM. The procedure: Compounds E9 and E17 were able to block pulldown of cyclin K at 1 μM and 200 nM. Specifically. […] Decreased pulldown of cyclin K with biotin-THZ1 indicated a loss of CDK12 binding.
as §1

Test [2] deals with Jurkat cells. As to the kind of experiment: Growth assay with and without washout. The class given is cell-based. Conditions: 1 uM, 4 hours treatment, assayed 68 hours after washout. The procedure:
Cells were treated with each compound for 4 hours and either no washout (no washout) or had compound removed by washing cells with media (washout). Sixty-eight (68) hours after washout, the cells were assayed for antiproliferative effects. Error bars indicate +/−SD.
4 hours after treatment, cells were either not treated or washed three times with RPMI media to remove all compound. Cells were replated and allowed to grow for 68 hours. Cells were assayed using celltiter glo (Promega) to determine cell viability by measuring the amount of ATP present, which is an indicator of cell metabolic activity. Results are graphed as luminescent values (FIG. 1).

The subject of test [3] is Pol II Ser2 phosphorylation and MCL1 levels. As to the kind of experiment: Washout expression assay (western blot). Conditions: Jurkat cells, 1 uM, 4 hours, 6 hours. The class given is cell-based. The procedure: 4 hours after treatment, cells were either not treated or washed three times with RPMI media to remove all compound. Cells were replated and allowed to grow for 6 hours. Cells were harvested, washed 3 times with PBS and resuspended in RIPA buffer (25 mM Tris-HCl (pH 7.6), 150 mM NaCl, 1% NP-40, 1% sodium deoxycholate, 0.1% SDS). Equal amount of protein was loaded onto gel and blotted for Pol II Ser2 (Millipore 04-1571), total pol II (Santa Cruz 17798), Tubulin (Cell Signaling 11H10) or MCL1 (Cell Signaling 4572S)
On the technique in general: Immunoblotting shows a protein as a band on a membrane.

Another test concerns CDK12 and CDK13. Briefly: KiNativ kinome profiling. The class given is binding. The conditions noted are these: 1 μM, 6 hrs. The procedure:
Jurkat cells were seeded at a density of 100 million cells/50 mL. Cells were treated with E9 (1 μM) or DMSO control for 6 hrs. Cells were washed twice with cold phosphate-buffered saline (PBS). PBS-washed cell pellets were flash frozen and subjected to KiNativt™ kinome profiling at ActivX Biosciences, Inc. according to their specifications using their desthiobiotin-ATP probe. Peptide sequences shown in Table A4 belong to the indicated kinase(s) and were detected by mass spectrometry (MS) under DMSO control conditions following enrichment for biotinylated proteins by streptavidin pulldown and subsequent proteolysis. Kinases labeled by the reactive desthiobiotin-ATP probe indicate that the kinase was accessible to desthiobiotin-ATP probe binding. Results shown are normalized to these paired DMSO controls and numbers represent the percentage (compared to DMSO control) of MS signal lost for sequences of an indicated kinase, eg—numbers approaching 100% indicate that test compound effectively out-competed the desthiobiotin ATP probe for binding to the kinase, resulting in decreased labeling and enrichment for peptides representing this kinase.

Another test deals with CDK12/CCNK complex (Homo sapiens, UniProt Q9NYV4). Briefly: Electrospray ionization mass spectra of CDK12/CCNK complex after treatment. The class given is binding. Conditions: 1 hr at room temperature. From the text: The zero-charge mass spectra in the upper panel and inset is the result of deconvolution of the raw mass spectrum in the lower panel. A. CCNK. C, phosphorylated CDK12. D, CDK12.
Chain of CDK12/CCNK complex (Q9NYV4 whole entry): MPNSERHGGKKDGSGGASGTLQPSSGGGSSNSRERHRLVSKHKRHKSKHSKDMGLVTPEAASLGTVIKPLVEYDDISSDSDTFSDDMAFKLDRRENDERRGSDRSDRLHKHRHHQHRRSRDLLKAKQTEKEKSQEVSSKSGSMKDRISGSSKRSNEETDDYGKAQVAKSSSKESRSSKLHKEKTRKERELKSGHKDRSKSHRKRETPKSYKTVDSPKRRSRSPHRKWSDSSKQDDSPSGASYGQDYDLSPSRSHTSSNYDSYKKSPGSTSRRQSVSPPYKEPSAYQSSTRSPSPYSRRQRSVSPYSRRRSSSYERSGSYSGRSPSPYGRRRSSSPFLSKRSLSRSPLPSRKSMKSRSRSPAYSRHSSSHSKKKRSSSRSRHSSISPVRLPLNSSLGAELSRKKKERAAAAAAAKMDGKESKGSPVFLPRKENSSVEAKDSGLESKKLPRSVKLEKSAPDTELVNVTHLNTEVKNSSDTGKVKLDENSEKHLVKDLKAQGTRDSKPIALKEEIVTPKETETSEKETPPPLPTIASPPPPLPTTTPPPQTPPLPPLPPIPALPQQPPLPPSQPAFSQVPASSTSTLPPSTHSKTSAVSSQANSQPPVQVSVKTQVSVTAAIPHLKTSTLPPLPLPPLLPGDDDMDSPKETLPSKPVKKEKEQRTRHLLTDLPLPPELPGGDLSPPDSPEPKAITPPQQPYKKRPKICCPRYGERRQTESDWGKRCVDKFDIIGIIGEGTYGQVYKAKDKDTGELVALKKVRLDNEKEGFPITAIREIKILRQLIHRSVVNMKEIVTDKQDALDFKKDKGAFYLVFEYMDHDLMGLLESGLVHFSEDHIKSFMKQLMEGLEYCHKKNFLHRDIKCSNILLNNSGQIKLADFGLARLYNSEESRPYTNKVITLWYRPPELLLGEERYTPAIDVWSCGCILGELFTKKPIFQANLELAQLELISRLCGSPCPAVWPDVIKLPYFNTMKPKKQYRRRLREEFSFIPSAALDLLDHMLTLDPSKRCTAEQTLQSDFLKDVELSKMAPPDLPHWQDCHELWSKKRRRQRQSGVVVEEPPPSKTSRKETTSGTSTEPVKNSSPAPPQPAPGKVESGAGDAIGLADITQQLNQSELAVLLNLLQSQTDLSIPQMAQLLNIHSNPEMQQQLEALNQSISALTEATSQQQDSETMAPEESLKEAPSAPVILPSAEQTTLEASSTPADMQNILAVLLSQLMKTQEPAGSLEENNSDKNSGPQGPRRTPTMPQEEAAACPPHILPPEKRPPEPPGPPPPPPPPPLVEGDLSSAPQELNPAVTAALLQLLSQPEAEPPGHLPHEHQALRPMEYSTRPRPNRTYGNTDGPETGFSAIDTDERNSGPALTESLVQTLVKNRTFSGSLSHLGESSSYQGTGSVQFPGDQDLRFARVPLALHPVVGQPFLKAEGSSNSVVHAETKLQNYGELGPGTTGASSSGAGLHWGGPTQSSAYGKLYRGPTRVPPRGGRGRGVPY
Chain of CDK12/CCNK complex (O75909 whole entry partner): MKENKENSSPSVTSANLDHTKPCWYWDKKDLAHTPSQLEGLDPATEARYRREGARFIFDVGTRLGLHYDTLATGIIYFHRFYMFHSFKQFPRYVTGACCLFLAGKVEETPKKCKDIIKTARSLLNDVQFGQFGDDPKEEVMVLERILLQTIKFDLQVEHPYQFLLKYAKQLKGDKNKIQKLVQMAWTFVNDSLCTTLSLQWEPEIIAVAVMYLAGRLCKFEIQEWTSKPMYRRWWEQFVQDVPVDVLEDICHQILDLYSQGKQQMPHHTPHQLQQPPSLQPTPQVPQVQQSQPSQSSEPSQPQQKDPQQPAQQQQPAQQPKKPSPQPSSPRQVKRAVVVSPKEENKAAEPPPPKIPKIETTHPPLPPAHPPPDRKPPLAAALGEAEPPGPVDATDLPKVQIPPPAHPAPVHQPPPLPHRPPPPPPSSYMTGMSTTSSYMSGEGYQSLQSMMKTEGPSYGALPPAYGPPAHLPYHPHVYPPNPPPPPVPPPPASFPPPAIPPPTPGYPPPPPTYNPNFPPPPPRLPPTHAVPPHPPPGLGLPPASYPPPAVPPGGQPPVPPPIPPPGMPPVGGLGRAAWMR
The zero-charge mass spectra in the upper panel and inset is the result of deconvolution of the raw mass spectrum in the lower panel. A, CCNK. B, phosphorylated and E-9 labeled CDK12. C, E-9 labeled CDK12.

In test [4] the test system is TAL1, RUNX1, and MYB mRNA transcripts. As to the kind of experiment: Jurkat gene expression analysis (qPCR). Conditions: 1 μM, 6 hrs, Jurkat cells. The class given is cell-based. The procedure:
Jurkat cells were seeded at a density of 5 million cells/10 mL. Cells were then treated with 200 nM or 1 μM of the indicated compounds or with DMSO control for 6 hours. Total RNA was extracted from 5 million cells using the RNeasy Plus Mini Kit (Qiagen) with a gDNA eliminator mini column to remove genomic DNA. mRNA was reverse transcribed into cDNA using the SuperScript III First-Strand Synthesis Kit (Life Technologies) using an oligo-dT primer to capture polyadenylated mRNAs. Quantitative PCR (qPCR) using transcript-specific Taqman probes (Applied Biosystems) was used to assess the effect of compound treatment on the expression of the indicated mRNA transcripts. All experiments shown were performed in biological triplicate. Each individual biological sample was qPCR-amplified in technical duplicate. Error bars are +/−SD. Expression data from drug treatments were normalized to GAPDH probe.
Jurkat cells were seeded at a density of 5 million cells/10 mL. Cells were then treated with 200 nM or 1 μM of the indicated compounds or with DMSO control for 6 hrs. […] Quantitative PCR (qPCR) using transcript-specific Taqman probes (Applied Biosystems) was used to assess the effect of compound treatment on the expression of the indicated mRNA transcripts. […]
For orientation: In qPCR the cycle at which signal appears reflects the starting amount.

Setting [5] is: 72 h, CellTiter-Glo, read-out: IC50 on Jurkat T-ALL cell proliferation.

Chain of CDK7/CycH (P50613 whole entry): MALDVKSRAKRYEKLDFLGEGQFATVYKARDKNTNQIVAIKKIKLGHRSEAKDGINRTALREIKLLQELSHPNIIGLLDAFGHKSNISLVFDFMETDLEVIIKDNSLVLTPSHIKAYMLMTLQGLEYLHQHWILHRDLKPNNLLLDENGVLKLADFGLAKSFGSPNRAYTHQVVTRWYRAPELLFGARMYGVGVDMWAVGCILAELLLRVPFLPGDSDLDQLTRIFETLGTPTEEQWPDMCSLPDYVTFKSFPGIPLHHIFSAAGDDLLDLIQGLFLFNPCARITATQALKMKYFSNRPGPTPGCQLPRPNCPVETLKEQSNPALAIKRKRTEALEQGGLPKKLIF
Chain of CDK7/CycH (P51946 whole entry partner): as the sequence (P51946 whole entry partner) above
T1 sequence (Q9NYV4 whole entry): as the sequence (Q9NYV4 whole entry) above
T1 sequence (O75909 whole entry partner): as the sequence (O75909 whole entry partner) above

For the compound `CC(C)n1cnc2c(Nc3cccc(NC(=O)c4ccc(NC(=O)/C=C/CN(C)C)cc4)c3)nc(N3CCCC(N)C3)nc21` (centres unmarked) [THZ-4-119-1, (E)-N-(3-((2-(3-Aminopiperidin-1-yl)-9-isopropyl-9H-purin-6-yl)amino)phenyl)-4-(4-(dimethylamino)but-2-enamido)benzamide], the figures for the IC50 against CDK7/CycH, on CDK9/CycT and in the test on Jurkat cells [1] (read-out: Jurkat IC50) were 11.5 nM, 519 nM and 1960 nM, respectively.
Consider `C=CC(=O)Nc1cccc(Nc2nc(N3CCCCC3CCO)nc3c2ncn3C(C)C)c1` (centres unmarked) [THZ-4-134-1, N-(3-((2-(2-(2-Hydroxyethyl)piperidin-1-yl)-9-isopropyl-9H-purin-6-yl)amino)phenyl)acrylamide], for which the IC50 on CDK7/CycH came to 1180 nM; at CDK9/CycT, 379 nM; with Jurkat cells [1] (read-out: Jurkat IC50) it was 522 nM; against CDK2/CycA it was 163 nM.
Taken in the same sequence, the figures for `CCc1cnn2c(Nc3cccc(NC(=O)c4ccc(NC(=O)/C=C/CN(C)C)cc4)c3)cc(N3CCCC(N)C3)nc12` (centres unmarked) [THZ-4-128-1, (E)-N-(3-((5-(3-Aminopiperidin-1-yl)-3-ethylpyrazolo[1,5-a]pyrimidin-7-yl)amino)phenyl)-4-(4-(dimethylamino)but-2-enamido)benzamide] were 46.8 nM, 73.4 nM, 1040 nM and 17100 nM.
As to `C=CC(=O)Nc1cccc(Nc2cc(N3CCCCC3CCO)nc3c(CC)cnn23)c1` (centres unmarked) [E-9(SB1-E-23), N-(3-(3-Ethyl-5-(2-(2-hydroxyethyl)piperidin-1-yl)pyrazolo[1,5-a]pyrimidin-7-ylamino)phenyl)acrylamide], the IC50 is 1090 nM at CDK7/CycH; 21.6 nM against CDK9/CycT; less than 100 nM with Jurkat cells [1] (72 h, read-out: IC50 on Jurkat T-ALL cell proliferation); 78.8 nM in the test with Jurkat cells [1] (read-out: Jurkat IC50); 250 nM on CDK2/CycA. The “Mode of inhibition of Jurkat T-ALL cell proliferation” value with Jurkat cells [1] is “irreversiably inhibit”. Further, the “Pulldown of Cyclin K by biotin-THZ1 (CDK12 binding)” value on CDK12 is reported as “blocks the pulldown of Cyclin K”. In addition, the “Pulldown of Cyclin H by biotin-THZ1 (CDK7 binding)” value on CDK7 is on record as “not able to bind to CDK7”. For the same compound, the “Inhibition of Jurkat cell viability with and without washout” value with Jurkat cells [2] is listed as “irreversibly inhibit Jurkat cell viability”. Besides, in [3], the “Effect on Polymerase II Serine 2 phosphorylation and MCL1 levels with and without washout” value is recorded as “irreversible effect”. Besides, the “Kinases bound in Jurkat cells (competition with desthiobiotin-ATP probe)” value in the test with CDK12 and CDK13 was “binds predominantly CDK12 and CDK13”. In addition, the “Labeling of CDK12 (mass shift)” value on CDK12/CCNK complex is “Only the masses of CDK12 proteins shift after treatment”.
Regarding `C=CC(=O)Nc1cccc(Nc2cc(N[C@H]3CC[C@H](N(C)C)CC3)nc3c(CC)cnn23)c1` [SB1-E-21, N-(3-(5-((1r,4r)-4-(Dimethylamino)cyclohexylamino)-3-ethylpyrazolo[1,5-a]pyrimidin-7-ylamino)phenyl)acrylamide], the IC50 against CDK7/CycH was 1210 nM; on CDK9/CycT, 226 nM; in the test with Jurkat cells [1] (setting [5]), more than 300 nM; in the test with Jurkat cells [1] (read-out: Jurkat IC50), 318 nM; on CDK2/CycA, 1220 nM. For the same compound, in test [4], the “Downregulation of TAL1, RUNX1, MYB transcripts” value is “potently reduce”.
As to `C=CC(=O)Nc1ccc(C(=O)Nc2cccc(Nc3nc(N4CCCCC4CCO)nc4c3ncn4C(C)C)c2)cc1` (centres unmarked) [THZ-4-124-1, 4-Acrylamido-N-(3-((2-(2-(2-hydroxyethyl)piperidin-1-yl)-9-isopropyl-9H-purin-6-yl)amino)phenyl)benzamide], the IC50 came out at 122 nM against CDK7/CycH, 373 nM against CDK9/CycT, 117 nM in the test with Jurkat cells [1] (read-out: Jurkat IC50) and 976 nM against CDK2/CycA.
As to `C=CC(=O)Nc1cccc(Nc2cc(N[C@H]3CC[C@H](N(C)C)CC3)nc3c(C(C)C)cnn23)c1` [SB1-E-26, N-(3-(5-((1r,4r)-4-(Dimethylamino)cyclohexylamino)-3-isopropylpyrazolo[1,5-a]pyrimidin-7-ylamino)phenyl)acrylamide], the IC50 on CDK7/CycH was 1090 nM; at CDK9/CycT, 429 nM; in the test with Jurkat cells [1] (setting [5]), more than 300 nM; with Jurkat cells [1] (read-out: Jurkat IC50) it was 518 nM; on CDK2/CycA it was 939 nM. In test [4], the “Downregulation of TAL1, RUNX1, MYB transcripts” value is “potently reduce”.
As for `C=CC(=O)Nc1cccc(Nc2nc(N3CCCCC3CCO)nc3c(CC)cnn23)c1` (centres unmarked) [SB1-E-18, N-(3-(8-Ethyl-2-(2-(2-hydroxyethyl)piperidin-1-yl)pyrazolo[1,5-a][1,3,5]triazin-4-ylamino)phenyl)acrylamide], the IC50 is 461 nM at CDK7/CycH, 41.8 nM against CDK9/CycT, 19.2 nM with Jurkat cells [1] (read-out: Jurkat IC50) and 15 nM on CDK2/CycA. Besides, the “Mode of inhibition of Jurkat T-ALL cell proliferation” value in the test on Jurkat cells [1] is “irreversiably inhibit”.
